# According to PubChem BioAssay (NCI):
#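 Test compounds were applied to cells in 96-well plates for 48 hours at 5 doses. The concentration for 50% growth inhibition is given as GI50. At the TGI there is no net growth.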
# Tests used:
# Assay in all cases: NCI anticancer screen, dose series, 48 h
# 786-0 renal = tested on: 786-0 renal
# A498 renal = tested on: A498 renal
# A549 NSCLC = tested on: A549 NSCLC
# ACHN renal = tested on: ACHN renal
# BT-549 breast = tested on: BT-549 breast
# CAKI-1 renal = tested on: CAKI-1 renal
# CCRF-CEM leukemia = tested on: CCRF-CEM leukemia
# COLO 205 colon = tested on: COLO 205 colon
# DU-145 prostate = tested on: DU-145 prostate
# EKVX NSCLC = tested on: EKVX NSCLC
# HCC-2998 colon = tested on: HCC-2998 colon
# HCT-15 colon = tested on: HCT-15 colon
# HL-60(TB) leukemia = tested on: HL-60(TB) leukemia
# HOP-92 NSCLC = tested on: HOP-92 NSCLC
# HS 578T breast = tested on: HS 578T breast
# HT29 colon = tested on: HT29 colon
# IGROV1 ovarian = tested on: IGROV1 ovarian
# K-562 leukemia = tested on: K-562 leukemia
# KM12 colon = tested on: KM12 colon
# LOX IMVI melanoma = tested on: LOX IMVI melanoma
# MALME-3M melanoma = tested on: MALME-3M melanoma
# MCF7 breast = tested on: MCF7 breast
# MDA-MB-231 breast = tested on: MDA-MB-231 breast
# MDA-MB-435 = tested on: MDA-MB-435
# MOLT-4 leukemia = tested on: MOLT-4 leukemia
# NCI-H226 lung = tested on: NCI-H226 lung
# NCI-H23 lung = tested on: NCI-H23 lung
# NCI-H460 lung = tested on: NCI-H460 lung
# NCI-H522 lung = tested on: NCI-H522 lung
# NCI/ADR-RES ovarian = tested on: NCI/ADR-RES ovarian
# OVCAR-3 ovarian = tested on: OVCAR-3 ovarian
# OVCAR-4 ovarian = tested on: OVCAR-4 ovarian
# OVCAR-5 ovarian = tested on: OVCAR-5 ovarian
# OVCAR-8 ovarian = tested on: OVCAR-8 ovarian
# RPMI-8226 leukemia = tested on: RPMI-8226 leukemia
# RXF 393 renal = tested on: RXF 393 renal
# SF-268 CNS = tested on: SF-268 CNS
# SF-295 CNS = tested on: SF-295 CNS
# SF-539 CNS = tested on: SF-539 CNS
# SK-MEL-2 melanoma = tested on: SK-MEL-2 melanoma
# SK-MEL-28 melanoma = tested on: SK-MEL-28 melanoma
# SK-MEL-5 melanoma = tested on: SK-MEL-5 melanoma
# SK-OV-3 ovarian = tested on: SK-OV-3 ovarian
# SN12C renal = tested on: SN12C renal
# SNB-19 CNS = tested on: SNB-19 CNS
# SNB-75 CNS = tested on: SNB-75 CNS
# SR leukemia = tested on: SR leukemia
# SW-620 colon = tested on: SW-620 colon
# T-47D breast = tested on: T-47D breast
# TK-10 renal = tested on: TK-10 renal
# U251 CNS = tested on: U251 CNS
# UACC-257 melanoma = tested on: UACC-257 melanoma
# UACC-62 melanoma = tested on: UACC-62 melanoma
# UO-31 renal = tested on: UO-31 renal
structure (smiles),measurement,setting,value
CC(=O)N(Cc1ccccc1)c1ccccc1I(=O)=O,GI50,786-0 renal,57.8 µM
same,TGI,786-0 renal,> 100 µM
same,GI50,A498 renal,49.7 µM
same,TGI,A498 renal,> 100 µM
same,GI50,A549 NSCLC,55.6 µM
same,TGI,A549 NSCLC,> 100 µM
same,GI50,ACHN renal,36 µM
same,TGI,ACHN renal,> 100 µM
same,GI50,BT-549 breast,> 100 µM
same,TGI,BT-549 breast,> 100 µM
same,GI50,CAKI-1 renal,42.2 µM
same,TGI,CAKI-1 renal,> 100 µM
same,GI50,CCRF-CEM leukemia,16.6 µM
same,TGI,CCRF-CEM leukemia,35.5 µM
same,GI50,COLO 205 colon,28.9 µM
same,TGI,COLO 205 colon,90.4 µM
same,GI50,DU-145 prostate,29.6 µM
same,TGI,DU-145 prostate,> 100 µM
same,GI50,EKVX NSCLC,88.5 µM
same,TGI,EKVX NSCLC,> 100 µM
same,GI50,HCC-2998 colon,99.3 µM
same,TGI,HCC-2998 colon,> 100 µM
same,GI50,HCT-15 colon,19.8 µM
same,TGI,HCT-15 colon,40.5 µM
same,GI50,HL-60(TB) leukemia,14.9 µM
same,TGI,HL-60(TB) leukemia,50.8 µM
same,GI50,HOP-92 NSCLC,13.3 µM
same,TGI,HOP-92 NSCLC,67.5 µM
same,GI50,HS 578T breast,> 100 µM
same,TGI,HS 578T breast,> 100 µM
same,GI50,HT29 colon,27.8 µM
same,TGI,HT29 colon,> 100 µM
same,GI50,IGROV1 ovarian,15.5 µM
same,TGI,IGROV1 ovarian,> 100 µM
same,GI50,K-562 leukemia,14 µM
same,TGI,K-562 leukemia,29.5 µM
same,GI50,KM12 colon,42 µM
same,TGI,KM12 colon,> 100 µM
same,GI50,LOX IMVI melanoma,17.5 µM
same,TGI,LOX IMVI melanoma,35.6 µM
same,GI50,MALME-3M melanoma,19.3 µM
same,TGI,MALME-3M melanoma,> 100 µM
same,GI50,MCF7 breast,16.5 µM
same,TGI,MCF7 breast,40.5 µM
same,GI50,MDA-MB-231 breast,50.4 µM
same,TGI,MDA-MB-231 breast,> 100 µM
same,GI50,MDA-MB-435,49.9 µM
same,TGI,MDA-MB-435,> 100 µM
same,GI50,MOLT-4 leukemia,12.7 µM
same,TGI,MOLT-4 leukemia,42.9 µM
same,GI50,NCI-H226 lung,> 100 µM
same,TGI,NCI-H226 lung,> 100 µM
same,GI50,NCI-H23 lung,37.8 µM
same,TGI,NCI-H23 lung,> 100 µM
same,GI50,NCI-H460 lung,22.8 µM
same,TGI,NCI-H460 lung,58.5 µM
same,GI50,NCI-H522 lung,22.4 µM
same,TGI,NCI-H522 lung,> 100 µM
same,GI50,NCI/ADR-RES ovarian,37.8 µM
same,TGI,NCI/ADR-RES ovarian,> 100 µM
same,GI50,OVCAR-3 ovarian,33.9 µM
same,TGI,OVCAR-3 ovarian,> 100 µM
same,GI50,OVCAR-4 ovarian,65.4 µM
same,TGI,OVCAR-4 ovarian,> 100 µM
same,GI50,OVCAR-5 ovarian,> 100 µM
same,TGI,OVCAR-5 ovarian,> 100 µM
same,GI50,OVCAR-8 ovarian,48.3 µM
same,TGI,OVCAR-8 ovarian,> 100 µM
same,GI50,RPMI-8226 leukemia,15.7 µM
same,TGI,RPMI-8226 leukemia,32.7 µM
same,GI50,RXF 393 renal,> 100 µM
same,TGI,RXF 393 renal,> 100 µM
same,GI50,SF-268 CNS,16.2 µM
same,TGI,SF-268 CNS,48.9 µM
same,GI50,SF-295 CNS,48.3 µM
same,TGI,SF-295 CNS,> 100 µM
same,GI50,SF-539 CNS,> 100 µM
same,TGI,SF-539 CNS,> 100 µM
same,GI50,SK-MEL-2 melanoma,63.6 µM
same,TGI,SK-MEL-2 melanoma,> 100 µM
same,GI50,SK-MEL-28 melanoma,34.5 µM
same,TGI,SK-MEL-28 melanoma,> 100 µM
same,GI50,SK-MEL-5 melanoma,33.6 µM
same,TGI,SK-MEL-5 melanoma,> 100 µM
same,GI50,SK-OV-3 ovarian,81.1 µM
same,TGI,SK-OV-3 ovarian,> 100 µM
same,GI50,SN12C renal,> 100 µM
same,TGI,SN12C renal,> 100 µM
same,GI50,SNB-19 CNS,82.2 µM
same,TGI,SNB-19 CNS,> 100 µM
same,GI50,SNB-75 CNS,50.9 µM
same,TGI,SNB-75 CNS,> 100 µM
same,GI50,SR leukemia,0.18 µM
same,TGI,SR leukemia,4.37 µM
same,GI50,SW-620 colon,29.4 µM
same,TGI,SW-620 colon,91.9 µM
same,GI50,T-47D breast,36.1 µM
same,TGI,T-47D breast,> 100 µM
same,GI50,TK-10 renal,45.2 µM
same,TGI,TK-10 renal,> 100 µM
same,GI50,U251 CNS,34.5 µM
same,TGI,U251 CNS,> 100 µM
same,GI50,UACC-257 melanoma,> 100 µM
same,TGI,UACC-257 melanoma,> 100 µM
same,GI50,UACC-62 melanoma,> 100 µM
same,TGI,UACC-62 melanoma,> 100 µM
same,GI50,UO-31 renal,38 µM
same,TGI,UO-31 renal,> 100 µM
